Laboratory results: US20120053235A1, “Dihydromyricetin as an IKK-beta inhibitor used for treatment of arthritis, cancer and autoimmune conditions, and other diseases or disorders” (HONG KONG BAPTIST UNIVERSITY, priority 2010, published 2012)

Legend:
[1] = test system: isolated human T lymphocytes; assay: T cells proliferation assay (BrdU ELISA); assay type: cell-based; conditions: stimulated with anti-OKT 3/anti-CD28 or PMA/ionomycin, 72 hours; FIGS. 2A and 2B
Description: The isolated human T lymphocytes (1×10^5 cells/well) were stimulated with anti-OKT 3/anti-CD28 antibodies or PMA/ionomycin (P/I) in the presence or absence of DMY for 72 hours.
5-bromo-2′-deoxy-uridine (BrdU, Roche) was added to the cells at the 14th hour before the end of stimulation and it could be incorporated into the DNA of the growing cells during the labeling period. The amount of BrdU incorporated into DNA was quantified as an indicator of cell proliferation. BrdU was determined by ELISA according to manufacturer's instructions.

human recombinant IKK-β = biological target: T1, human recombinant IKK-β (Homo sapiens, UniProt O14920); assay: IKK-β competition assay (dot blot with biotin-DMY); assay type: binding; conditions: 100 μM biotin-DMY, 0, 1 and 5 folds of parental compound; FIG. 5A
T1 sequence (O14920 1-756): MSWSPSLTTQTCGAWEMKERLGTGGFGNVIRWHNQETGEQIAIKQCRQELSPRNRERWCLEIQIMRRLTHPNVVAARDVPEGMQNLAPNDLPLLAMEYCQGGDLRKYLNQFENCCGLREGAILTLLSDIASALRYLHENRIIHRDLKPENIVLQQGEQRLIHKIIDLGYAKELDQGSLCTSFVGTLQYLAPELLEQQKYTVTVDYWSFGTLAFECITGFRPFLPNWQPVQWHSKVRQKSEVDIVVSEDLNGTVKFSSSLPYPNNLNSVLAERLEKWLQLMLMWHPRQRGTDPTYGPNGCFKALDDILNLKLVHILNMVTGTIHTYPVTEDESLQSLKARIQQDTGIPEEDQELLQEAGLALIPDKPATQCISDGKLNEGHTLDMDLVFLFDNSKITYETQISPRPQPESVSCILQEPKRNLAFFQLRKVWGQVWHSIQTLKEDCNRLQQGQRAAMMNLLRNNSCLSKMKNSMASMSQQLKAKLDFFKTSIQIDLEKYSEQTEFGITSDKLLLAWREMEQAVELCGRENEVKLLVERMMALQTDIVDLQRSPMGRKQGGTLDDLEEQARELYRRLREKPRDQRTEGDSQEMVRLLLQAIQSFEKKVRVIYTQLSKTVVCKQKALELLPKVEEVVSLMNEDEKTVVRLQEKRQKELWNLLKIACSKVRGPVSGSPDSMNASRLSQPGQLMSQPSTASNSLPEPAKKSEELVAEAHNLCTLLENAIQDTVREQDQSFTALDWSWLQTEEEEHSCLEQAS
Description: 5 ng of human recombinant IKK-β was incubated with 100 μM of the biotin-DMY in the presence of 0, 1, and 5 folds of concentration of its parental compound. The mixture was dropped on the nitrocellulose membranes, and then detected with streptavidin horseradish peroxidase. The binding signal was then detected by using ECL.

[2] = test system: ear edema induced by dinitrofluorobenzene in male ICR mice; assay: Delay-type hypersensitivity test (DNFB-induced ear edema); assay type: in vivo
Description: Male mice were sensitized through topical application of 20 μl of 0.5% (v/v) dinitrofluorobenzene (DNFB) in acetone onto the shaved abdomen on days 1 and 2. Challenge was then preformed in day 6 by applying DNFB (20 μl, 0.5%, v/v) on the left inner and outer ear surfaces of mice. DMY (at doses of 0.5, 1, 2 mg/ear) and DEX (0.025 mg/ear, Sigma-Aldrich) dissolved in acetone was topically applied (20 μl) to the ears at 2nd, 24th, 48th, and 72nd hour after the challenge. The mice were sacrificed by cervical dislocation, and then the same area of the ears was punched from each animal. Spleens and thymuses were isolated and weighted. The ear edema was calculated according to the differences between the weight of the right and left ears. The control group was treated only with DNFB.

[3] = test system: c-Jun nuclear translocation in human T lymphocytes; assay: c-Jun nuclear translocation assay (Western blot); assay type: cell-based; conditions: pretreated 1 hour, PMA plus ionomycin 120 minutes
Description: For c-Jun and c-Fos nuclear translocation assays, the human T lymphocytes (6×10^6/well) were pretreated with DMY for 1 hour, and then stimulated with 20 ng/ml PMA plus […] ionomycin for 120 minutes. After the cells were harvested and washed with PBS twice, the nuclear proteins of cells were then prepared using NucBuster™ Reagents. Afterwards, the washed cells were re-suspended using 60 μl NucBuster™ Reagent 1 per 30 μl of packed cells and processed twice by vortexing for 15 seconds, and followed by the incubation on ice for 5 minutes and second vortexing for 15 seconds, and finally centrifuged at 16000 g for 5 minutes. The supernatants containing cytoplasmic proteins were discarded; the cell pellets were re-suspended in 45 μl of NucBuster Extraction Reagent 2. The same vortexing, icing, and repeated vortexing steps were repeated once to prepare the nuclear proteins of the cells.
Protein concentrations were determined by using Bio-Rad Protein assay. Equal amounts of nuclear proteins or whole-cell lysates were analyzed by 10% SDS-PAGE. After electrophoresis, the proteins were electro-transferred to the nitrocellulose membranes. […]

[4] = test system: NF-κB nuclear translocation in human T lymphocytes; assay: NF-κB nuclear translocation (p65 Western blot of nuclear proteins); assay type: cell-based; conditions: pretreated 1 hour, 20 ng/ml PMA plus 1 μM ionomycin 120 minutes; FIG. 6A
Description: Human T lymphocytes (6×10^6/well) were pretreated with DMY for 1 hour, and subsequently stimulated with 20 ng/ml PMA plus 1 μM ionomycin for 120 minutes. The cells were then harvested and washed with PBS twice. The nuclear proteins of cells were prepared by using NucBuster™ Reagents (Novagen, USA). The washed cells were re-suspended using 60 μl NucBuster™ Reagent for […] of packed cells and processed twice by vortexing for 15 seconds, and followed by incubation on ice for 5 minutes and second vortexing for 15 seconds, and finally centrifuged at 16000 g for 5 minutes. The supernatants containing cytoplasmic protein were harvested, and then the cell pellets were re-suspended in 45 μl of NucBuster Extraction Reagent 2. The same vortexing, icing, and repeated vortexing procedures were repeated once to prepare the nuclear proteins of the cells.
Protein concentrations were determined by using Bio-Rad Protein assay. Equal amounts of nuclear proteins or whole-cell lysates were analyzed by 10% SDS-PAGE. After electrophoresis, the proteins were electro-transferred to the nitrocellulose membranes. After proteins were transferred, the membranes were blocked by 5% dried milk for 60 minutes and then washed three times for 5 min in each washing interval with Tris Buffered Saline with Tween 20 (TBS-T). […]

[5] = DTHT mice, topical treatment, FIGS. 9B and C

O=C1c2c(O)cc(O)cc2O[C@H](c2cc(O)c(O)c(O)c2)[C@H]1O [DMY, dihydromyricetin]
T cell proliferation [1]: block T cell proliferation
competition with biotin-DMY for binding to IKK-β (human recombinant IKK-β): can compete with biotin-DMY
body weight ([2]; DTHT mice, topical treatment): only a small decrease
spleen weight [2, 5]: increase
thymus weight [2, 5]: increase
ear edema ([2]; topical, 0.5, 1, 2 mg/ear at 2nd, 24th, 48th, 72nd hour after challenge, FIG. 9A): significantly and dose-dependently inhibit the ear edema
nuclear translocation of c-Jun [3]: suppress nuclear translocation
NF-κB nuclear translocation [4]: significantly suppressed
